This note sets out measurements from the OPERA property sets (Mansouri et al. 2018).

Molecules are shown by their SMILES.

Details in one series: not given
In the case of `C/C(=N\O)C(=O)c1ccccc1`, the melting point came out at 114 °C. The same measure, in the same setting: the same measure for `Ic1ccc(I)s1`: 41.5 °C. On the same count and under the same terms, then `N#CCCN(CCO)c1ccc(N=Nc2ccc([N+](=O)[O-])cc2Cl)cc1`, with 157 °C; and `Oc1ccc(Cl)c(Cl)c1Cl`, with 83.5 °C.

For the compound `C1COCCOCCOCCO1`, the melting point is 16 °C. The same measure, in the same setting: the same measure for `O=c1ccc2cc3ccoc3c(O)c2o1`: 252 °C. With `CC(C)[C@H](C(=O)OC(C#N)c1cccc(Oc2ccccc2)c1)c1ccc(OC(F)F)cc1` (some centres not stated), the log10 Koc (L/kg) came out at 5 and the log10 vapour pressure (mmHg) was -8.06. The compound `Nc1ccnc(N)c1` came in with a melting point of 107 °C. On to `Cc1ccc(C(C)(C)C)c(O)c1`, for which the melting point turned out to be 46.5 °C and the ready biodegradability result is “not readily biodegradable”. In turn, `COC(=O)C(C)=O` showed a boiling point of 136 °C. Take `Cc1cc(C2CCCCC2)n(O)c(=O)c1`: the melting point is 144 °C. The same measure, in the same setting: then `CNCCCC12CCC(c3ccccc31)c1ccccc12`, with 93 °C; and `O=c1c2ccccc2ccc2ccccc12`, with 88.5 °C. In turn, `Nc1ccc(Cl)c(Cl)c1Cl` showed a boiling point of 292 °C, a log10 Koc (L/kg) of 2.6 and a melting point of 73 °C. For `Nc1ccc(S(=O)(=O)c2ccc(NCCO)cc2)cc1`, the melting point turned out to be 131 °C.

`Cl.Cl.Cl.Cl.Nc1ccc(-c2ccc(N)c(N)c2)cc1N`: the melting point amounted to 179 °C.

Regarding `CC(=O)Oc1cccc2c1C(=O)c1c(OC(C)=O)cc(C(=O)O)cc1C2=O`, the melting point came out at 218 °C. Still for that read-out and setting: then `CCCCCCCCCC[C@H](O)CC`, with 32 °C. `CC(C)=NOCCOC(=O)[C@@H](C)Oc1ccc(Oc2cnc3cc(Cl)ccc3n2)cc1`: the log10 vapour pressure (mmHg) was -11.5 and the melting point came to 66.3 °C. With `CCOC(=O)c1cccc(Cl)c1O`, the boiling point is 270 °C and the melting point was found to be 21 °C.

Consider `Oc1c(Br)c(Br)c(Br)c(Br)c1Br`, for which the melting point was 230 °C and the ready biodegradability result was “not readily biodegradable”.

Turning to `C=C(C)[C@@H]1CC[C@@H](C)[C@@H](O)C1`, the boiling point was 224 °C. For `CCCCCCCCCCCCCS`, the boiling point amounted to 291 °C and the log10 vapour pressure (mmHg) is -3.16. As for `CCCCCCCCCCCCCCCCCCCCCCCCCCCCCCCCCCCCCCCCCCCC`, the boiling point is 548 °C, the melting point is 87.5 °C and the ready biodegradability result is reported as “readily biodegradable”. In the case of `Clc1ccc(Br)c(Cl)c1`, the boiling point is 235 °C and the melting point was 26 °C. The like results for `FC(F)(F)C(F)(F)C(F)(C(F)(F)F)C(F)(F)C(F)(F)F` were, in that order, 58.4 °C and -115 °C. As to `CCC(CO)(CO)CO`, the ready biodegradability entry was “not readily biodegradable”. `COc1cc(C(=O)N2CCOCC2)cc(OC)c1OC` returned a melting point of 121 °C.

In the case of `OCc1ccccc1O`, the melting point came to 87 °C and the ready biodegradability entry is on record as “not readily biodegradable”. Regarding `CCOC=O`, the boiling point was found to be 54.4 °C, the log10 Henry constant (atm·m³/mol) is -3.41, the log10 Koa stood at 2.19 and the log10 vapour pressure (mmHg) was determined as 2.39. The same compound gave a melting point of -79.6 °C.

For the compound `O=[N+]([O-])c1cccc2c([N+](=O)[O-])cccc12`, the melting point was determined as 219 °C and the ready biodegradability entry is “not readily biodegradable”. Consider `Cc1cc(C)c(C(C)C)cc1C`, for which the boiling point is 221 °C and the melting point amounted to 21 °C. For the compound `CCCCC=C(C)C`, the boiling point worked out at 123 °C and the log10 vapour pressure (mmHg) was determined as 1.25.

In turn, `O=C=S` registered a boiling point of -50 °C, a log10 vapour pressure (mmHg) of 3.97 and a melting point of -139 °C.

As for `CCCOC(=O)C(C)C`, the boiling point was found to be 135 °C and the log10 vapour pressure (mmHg) was found to be 0.924. The compound `CC(C)NC(C)C` had a boiling point of 83.9 °C, a log10 vapour pressure (mmHg) of 1.9 and a melting point of -61 °C. With `COC(=O)Nc1ccc(Cl)c(Cl)c1`, the log10 Koc (L/kg) was found to be 2.74. `CCOC(=O)CNc1ccccc1` displayed a boiling point of 274 °C and a melting point of 58 °C.

Take `Fc1cc(F)nc(F)n1`: the boiling point was 98 °C. The same measure, in the same setting: the same measure for `CCOc1cccc(C=O)c1`: 246 °C. `N#C/C(=N\OCC1OCCO1)c1ccccc1`: the log10 vapour pressure (mmHg) was -5.4 and the melting point worked out at 77.7 °C. `CCCCCCCCCCCC(N)=O` returned a melting point of 110 °C. The compound `O=[N+]([O-])c1ccc2c(c1)oc1ccccc12` gave a melting point of 182 °C. `Nc1ccc(S(=O)(=O)Nc2cnccn2)cc1` registered a melting point of 251 °C. For `c1ccc2cnncc2c1`, the boiling point amounted to 316 °C and the melting point amounted to 90.5 °C.

The series is the same for the next values; noted with them: fish.
Compound `CC(C)(C)c1cc(-c2ccccc2)cc(C(C)(C)C)c1O` came in with a log10 BCF of 3.78 and a log10 biotransformation half-life (days) of 1.16.

Compound `Cc1cc(O)ccc1[N+](=O)[O-]` had a log10 BCF of 1.06. The same measure, in the same setting: then `Oc1cc(Cl)ccc1Cl`, with 1.01; and `Oc1cc(Cl)c(Cl)cc1Cl`, with 2.73.

Compound `Nc1ccc(Cl)c(Cl)c1Cl` had a log10 BCF of 2 and a log10 biotransformation half-life (days) of -0.27. `Clc1cc(Cl)c2c(oc3c(Cl)cc(Cl)c(Cl)c32)c1Cl` yielded a log10 BCF of 2.96. Compound `CC(C)(c1ccccc1)C(C)(C)c1ccccc1` displayed a log10 biotransformation half-life (days) of 0.87.
